Results from US6291515A, “Use of efomycins” (Bayer Aktiengesellschaft, priority 1996, dated 2001).

Legend:
Type in all cases: cell-based
[1] = tested on: adhesion of pig PMNL to hypoxia-stimulated pig aorta; assay: Inhibition of PMNL adhesion to hypoxia-stimulated pig aortas, pig PMNL; conditions: for % adherent PMNL, Pig PMNL: hypoxia-stimulated pig aorta, proportion of adherent PMNL vs control (=100), 90-minute coincubation at 37° C., MPO readout
Method: (§1) Freshly isolated pig aortas were brought into the laboratory from the local slaughterhouse in oxygen-aerated, phosphate-buffered saline solution (PBS). Freshly obtained pig or human blood was taken for the preparation of polymorphonuclear neutrophilic granulocytes (PMNL). The aortas were stimulated by placing them for 30 minutes in PBS which was aerated with nitrogen (hypoxia stimulus). The aorta were then fixed between a Teflon block (below) and a specially made steel plate (above) with drilled wells (similar to a microtiter plate). PMNL and the potential adhesion inhibitors were added to the luminal side, i.e. to the stimulated endothelial cell layer, in cell media (M199, Gibco). After a 90-minute coincubation at 37° C. in an incubator, the wells were washed. The remaining adherent PMNL were lysed. The activity of the PMNL-specific myeloperoxidase (MPO) in the lysate was determined photometrically and compared to the untreated control (only solvent). […] The proportion of the adherent PMNL in comparison with the control is indicated.
(§2) Inhibition of the adhesion of pig PMNL or human PMNL to hypoxia-stimulated pig aorta by efomycins

[2] = tested on: adhesion of PMNL to albumin-coated plastic surfaces; assay: Adhesion of PMNL to albumin-coated plastic surfaces; conditions: test described in EP 0 461 499 A2 (Use Example 1)
Description: The adhesion test to albumin-coated plastic surfaces is described in detail, inter alia, in EP 0 461 499 A2 (Use Example 1).

[3] = tested on: adhesion of human PMNL to hypoxia-stimulated pig aorta; assay: Inhibition of PMNL adhesion to hypoxia-stimulated pig aortas, human PMNL; conditions: proportion of adherent PMNL vs control (=100), 90-minute coincubation at 37° C., MPO readout
Method: as §1, §2

[4] = tested on: cultured endothelial cells; assay: MTT test for cytotoxicity on endothelial cells; conditions: at efficacious concentrations

| Structure (SMILES) | activity in the test model described (PMNL adhesion to hypoxia-stimulated pig aorta), in words ([1]; PMNL species not given) | % adherent PMNL, Pig PMNL [1] | inhibition of adhesion of PMNL to albumin-coated plastic surfaces [2] | % adherent PMNL, Human PMNL [3] | cytotoxicity against endothelial cells in the MTT test [4] |
| --- | --- | --- | --- | --- | --- |
| CC[C@@H](/C=C/C(=O)[C@@H](C)[C@H](O)[C@H](C)[C@H]1OC(=O)/C=C/C=C/[C@H](C)[C@@H]([C@@H](C)[C@@H](O)[C@H](C)C(=O)/C=C/[C@H](CC)[C@@H](C)O)OC(=O)/C=C/C=C/[C@@H]1C)[C@@H](C)O [Ex. No. 1] | active | 33 ± 23% | does not inhibit | 52 ± 2% | no cytotoxicity |
| CC[C@@H](/C=C/C(=O)[C@@H](C)[C@H](OC(C)=O)[C@H](C)[C@H]1OC(=O)/C=C/C=C/[C@H](C)[C@@H]([C@@H](C)[C@@H](OC(C)=O)[C@H](C)C(=O)/C=C/[C@H](CC)[C@@H](C)OC(C)=O)OC(=O)/C=C/C=C/[C@@H]1C)[C@@H](C)OC(C)=O [Ex. No. 2] | – | 85 ± 11% | – | 90 ± 5% | – |
